Experimental findings from PubChem BioAssay (NCI) are described below.

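1) Cells in 96-well plates. 2) Compound, 48 h, 5 concentrations. 3) Linear interpolation between surrounding doses. 4) Unreached endpoint = highest concentration. TGI: total growth inhibition.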 Bounds are passed on as bounds.

Holding throughout (experiment): NCI tumour cell line growth inhibition, 48 h
The subject of experiment [1] is HCC-2998 colon.
In experiment [2] the test system is IGROV1 ovarian.
Experiment [3] has as its system MOLT-4 leukemia.
Experiment [4] deals with NCI-H23 lung.
Experiment [5] concerns OVCAR-5 ovarian.
Experiment [6] deals with RXF 393 renal.
Experiment [7] relates to SF-295 CNS.
For experiment [8], the system named is SK-MEL-2 melanoma.
Experiment [9] deals with UO-31 renal.

`CC(=O)Nc1ccc(/C=C/C(=O)c2sc(-c3cccnc3)nc2C)cc1`: the TGI in experiment [1], in experiment [2], in experiment [3], in experiment [4], in [5] and in [6] was more than 100 µM each time. Further, the TGI in experiment [7], in [8] and in experiment [9] was more than 100 µM throughout.
Turning to `C=C(C)[C@H]1CC[C@@]2(C)C(C1)[C@H](C)CC[C@@H]2O` (some centres undefined), the TGI in experiment [1], in experiment [2], in [3], in experiment [4], in [5] and in experiment [6] was more than 100 µM in each case. For the same compound, the TGI in experiment [7], in experiment [8] and in [9] was more than 100 µM in each case.
With `COC1CCC(OS(C)(=O)=O)C(CO)O1` (centres undefined), the TGI in experiment [1], in [2], in [3], in [4], in experiment [5] and in experiment [6] was more than 100 µM throughout. Moreover, the TGI in experiment [7], in experiment [8] and in [9] was more than 100 µM each time.
Turning to `CCN(CC)CCCNc1nccc2c(C)c3c(cc12)c1cnccc1n3C`, the TGI is 0.256 µM in experiment [1]; 2.75 µM in experiment [2]; 1.18 µM in experiment [4]; 1.31 µM in [7]; 2.32 µM in experiment [9].
On to `COc1cc2cc(OC(C)=O)c3cc4c(cc3c2c(OC)c1OC)OCO4`, for which the TGI in experiment [1], in experiment [2], in experiment [3], in experiment [4], in experiment [5] and in experiment [6] was more than 100 µM each time. Further, the TGI in experiment [7], in [8] and in experiment [9] was more than 100 µM each time.
For `O=C1[C@H]2ON(c3ccccc3)C(c3ccc([N+](=O)[O-])cc3)[C@H]2C(=O)N1c1ccc(Cc2ccc(N3C(=O)[C@@H]4ON(c5ccccc5)C(c5ccc([N+](=O)[O-])cc5)[C@@H]4C3=O)cc2)cc1` (some centres undefined), the TGI in experiment [1], in experiment [2], in experiment [3], in [4], in [5] and in experiment [6] was more than 100 µM throughout. Further, the TGI in [7], in experiment [8] and in experiment [9] was more than 100 µM throughout.
Turning to `C=CSCCC(N)C(=O)O` (centres undefined), the TGI in [1], in experiment [2], in experiment [3], in [4], in [5] and in experiment [6] was more than 100 µM each time. In addition, the TGI in experiment [7] and in experiment [9] was more than 100 µM each time.
`CC1=N/C(=C/c2ccc3c(c2)OCO3)C(=O)O1`: the TGI in [2], in experiment [3], in experiment [4], in experiment [5], in [6] and in experiment [8] was more than 100 µM throughout. In experiment [9], this compound returned a TGI of more than 100 µM.
On to `C=CCNC(=O)NCCCCC(NC(C)=O)C(=O)NCc1ccccc1` (centres undefined), for which the TGI in [1], in [2], in experiment [3], in experiment [4], in [5] and in experiment [6] was more than 100 µM each time. Also, the TGI in experiment [7], in experiment [8] and in [9] was more than 100 µM in each case.
`O=C(C(=O)c1cc2ccccc2[nH]1)c1cc2ccccc2[nH]1`: the TGI in experiment [1], in experiment [2], in experiment [3], in experiment [4], in [5] and in experiment [6] was more than 347 µM each time. For the same compound, the TGI in [7], in experiment [8] and in experiment [9] was more than 347 µM in each case.
For `Cc1cnc2ccc(C)c([N+](=O)[O-])c2c1NCCCN(C)C`, the TGI in experiment [1], in experiment [3], in experiment [4], in experiment [5], in [7] and in experiment [8] was more than 100 µM each time. This compound registered a TGI in experiment [9] of more than 100 µM.
As to `C=C(CCCCC)CN1CCCC1C(C)=O` (centres undefined), the TGI in [1] is more than 100 µM; in experiment [2] it was more than 100 µM; in [3] it was 33 µM; in [4], 65.1 µM; in experiment [5] it was more than 96.1 µM; in experiment [6] it was more than 95.7 µM. The values for the TGI in experiment [7], in experiment [8] and in [9] were more than 94.7 µM, more than 74.7 µM and more than 100 µM, respectively.
For the compound `NCCSSCc1ccccc1CSSCCN`, the TGI in experiment [1], in experiment [2], in experiment [3], in [4], in experiment [5] and in [6] was more than 100 µM throughout. Further, the TGI in experiment [7] and in [9] was more than 100 µM in each case.
As to `COc1ccc(Cc2c3cc(O)c(=O)cc-3ccn2C)cc1`, the TGI in experiment [1] is more than 100 µM; in experiment [2], more than 100 µM; in experiment [3] it was more than 81 µM; in [4], more than 100 µM; in experiment [5], more than 100 µM; in experiment [6], 73.7 µM. Further, the TGI was more than 100 µM in experiment [7], more than 100 µM in experiment [8] and more than 73 µM in experiment [9].
`CC(C)(C)C1=CC(=C(P(=O)(O)O)P(=O)(O)O)C=C(C(C)(C)C)C1=O`: the TGI in experiment [1], in experiment [2], in experiment [3], in experiment [4], in experiment [5] and in experiment [7] was more than 50 µM each time. Further, the TGI in experiment [8] and in [9] was more than 50 µM throughout.
As for `CC(C)N(C(=O)C12C3C4C5(C#N)C3C1(C#N)C5C42C#N)C(C)C` (centres undefined), the TGI in experiment [1], in [2], in experiment [3], in [4], in experiment [5] and in experiment [7] was more than 100 µM in each case. Further, the TGI in [8] and in experiment [9] was more than 100 µM throughout.
As for `O=C(/C=C\c1ccccc1O)c1ccc(O)cc1O`, the TGI in experiment [1], in experiment [2], in [3], in [4], in experiment [5] and in experiment [6] was more than 100 µM throughout. Further, the TGI in experiment [7], in experiment [8] and in experiment [9] was more than 100 µM each time.
In the case of `O=C1C=C(Nc2ccc(Cl)cc2Cl)c2ccccc2C1=O`, the TGI in experiment [1] is more than 100 µM; in experiment [2] it was more than 100 µM; in [3], more than 100 µM; in [4], 54.5 µM; in experiment [5], more than 100 µM; in experiment [6], more than 100 µM. In addition, the TGI is more than 100 µM in experiment [7], 60.8 µM in experiment [8] and more than 100 µM in experiment [9].
In the case of `Cc1c(C)c2ccc3oc4ccccc4c3c2oc1=O`, the TGI in experiment [1], in [2], in experiment [3], in experiment [4], in experiment [5] and in [6] was more than 100 µM throughout. Also, the TGI in [7] and in experiment [9] was more than 100 µM in each case.
With `COC(=O)c1cc2c(=O)n(C)c3ccccc3n2c1C(=O)OC`, the TGI in [1], in experiment [2], in experiment [3], in [4], in experiment [5] and in experiment [6] was more than 100 µM in each case. Moreover, the TGI in experiment [7], in [8] and in [9] was more than 100 µM throughout.
Consider `CCOC(OC(C)=O)[C@@H]1C=C[C@H](C)N(c2ccc([N+](=O)[O-])cc2)O1` (some centres undefined), for which the TGI in experiment [1] worked out at 26.3 µM; in experiment [2], 29 µM; in experiment [3], 5.49 µM; in experiment [4], 16.2 µM; in [5] it was 10.4 µM; in experiment [6], 22.4 µM. Further, the TGI is 27.4 µM in experiment [7], 13.5 µM in [8] and 9.16 µM in experiment [9].
Take `CSc1ccc2c(cc1=O)[C@@H](NC(=O)c1cccc([N+](=O)[O-])c1)CCc1cc(O)c(O)c(O)c1-2`: the TGI was more than 100 µM in experiment [1]; more than 100 µM in experiment [2]; 53.1 µM in experiment [3]; more than 100 µM in experiment [4]; more than 100 µM in [5]; more than 100 µM in experiment [6]. Moreover, the TGI in experiment [7], in [8] and in experiment [9] was more than 100 µM in each case.
With `CCC[C@H]1O[C@@H]2CC(=O)O[C@@H]2C2=C1C(=O)C=CC2=O`, the TGI in experiment [1] was more than 57 µM; in experiment [2], 32.1 µM; in experiment [3], 8.98 µM; in experiment [4], 18.5 µM; in experiment [5], 36 µM; in experiment [6], 30.4 µM. Also, the values for the TGI in experiment [7], in experiment [8] and in experiment [9] were 55.8 µM, 38.6 µM and 32.5 µM, respectively.
Regarding `CN(CCS(=O)(=O)N1C(=O)C2CCCN2C(=O)[C@@H]1Cc1ccccc1)C(=O)OCc1ccccc1` (some centres undefined), the TGI was more than 100 µM in [1]; more than 100 µM in experiment [2]; 53.5 µM in experiment [3]; more than 100 µM in [4]; more than 100 µM in experiment [5]; more than 100 µM in experiment [6]. In addition, the TGI in [7] and in experiment [9] was more than 100 µM each time.
For `N#C/C(=C\c1cc(O)cc(O)c1)C(N)=O`, the TGI in experiment [1], in experiment [2], in experiment [3], in experiment [4], in experiment [5] and in experiment [6] was more than 100 µM in each case. The TGI in [7], in [8] and in experiment [9] was more than 100 µM throughout.
In the case of `C=CCC1(CN(C)C)CC/C(=C\c2ccc(OC)cc2)C1=O` (centres undefined), the TGI in [1], in experiment [2], in [3], in experiment [4], in experiment [5] and in [6] was more than 100 µM each time. The TGI in [7], in experiment [8] and in experiment [9] was more than 100 µM throughout.
Take `C=C[C@@H](C)[C@]1(C(=O)OC)CCCC12OCCO2`: the TGI in experiment [1], in experiment [2], in [3], in experiment [5], in experiment [6] and in experiment [7] was more than 100 µM each time. Moreover, the TGI in [8] and in [9] was more than 100 µM throughout.
Regarding `Cc1ccc(C)c(N2C(=O)C(=O)C(c3nc4ccccc4s3)/C(=N/N)C2=O)c1` (centres undefined), the TGI in experiment [1], in experiment [2], in experiment [3], in [4], in experiment [5] and in experiment [6] was more than 100 µM throughout. Besides, the TGI was more than 33.5 µM in experiment [7], more than 100 µM in experiment [8] and more than 100 µM in experiment [9].
For the compound `CC1(C)OC2C(CCP(=O)(O)O)OC(c3nc(C(N)=O)cs3)C2O1` (centres undefined), the TGI in experiment [1], in [2], in [3], in experiment [4], in [5] and in [6] was more than 100 µM each time. The TGI in experiment [8] and in [9] was more than 100 µM each time.
With `NNC(=O)C(=O)N/N=C(\CCCC(=O)Nc1ccc(Cl)cc1)CC(=O)c1ccc(F)cc1`, the TGI in experiment [1], in [2], in [3], in experiment [4], in experiment [5] and in [6] was more than 100 µM throughout. Further, the TGI in experiment [7], in experiment [8] and in experiment [9] was more than 100 µM in each case.
